In ChEMBL document CHEMBL3046301, “A study on the genotoxic activities of some new benzoxazoles” (Med Chem Res, 2007):
Values after ≈ are worked out from the molar mass of the structure shown.

Assays:
[1] = Ratio of CR50 for wild type Bacillus subtilis H17 to CR50 for recombination-deficient Bacillus subtilis M45; assay type: ADME, organism-based
Bacillus subtilis [2] = experiment: Genotoxicity in recombination-deficient Bacillus subtilis M45 assessed as growth inhibition; assay type: toxicity, organism-based; conditions: in vivo
Bacillus subtilis [3] = experiment: Genotoxicity in wild type Bacillus subtilis H17 assessed as growth inhibition; assay type: toxicity, organism-based; conditions: in vivo

Compound | selectivity ratio [1] | MIC (Bacillus subtilis [2]) | MIC (Bacillus subtilis [3])
O=[N+]([O-])c1cc2oc(C3CCCCC3)nc2cc1Cl | 1.25 | 500 µg/mL | 500 µg/mL (≈ 1780 µM)
CCOc1ccc(Cc2nc3cc([N+](=O)[O-])ccc3o2)cc1 | 1.27 | 500 µg/mL | 500 µg/mL (≈ 1680 µM)
Nc1ccc(-c2nc3cc(Cl)ccc3o2)cc1 | 1 | 2000 µg/mL | 2000 µg/mL (≈ 8170 µM)
Cc1ccc2[nH]c(Cc3ccc(Br)cc3)nc2c1 | 0.49 | 125 µg/mL | 30 µg/mL (≈ 99.6 µM)
Clc1ccc2[nH]c(CC3CCCCC3)nc2c1 | 0.93 | 500 µg/mL | 1000 µg/mL (≈ 4020 µM)
O=C(Nc1ccc2oc(-c3ccccc3)nc2c1)c1ccc(F)cc1 | 1.6 | 500 µg/mL | 1000 µg/mL (≈ 3010 µM)
CCc1ccc(-c2nc3cc(NC(=O)Cc4ccc(Br)cc4)ccc3o2)cc1 | 0.95 | 500 µg/mL | 500 µg/mL (≈ 1150 µM)
Cc1ccc2nc(COc3ccccc3)oc2c1 | 0.93 | 1000 µg/mL | 1000 µg/mL (≈ 4180 µM)
Clc1ccc(OCc2nc3cc(Cl)ccc3o2)cc1 | 1 | 500 µg/mL | 500 µg/mL (≈ 1700 µM)
Clc1ccc2oc(Cc3ccc(Br)cc3)nc2c1 | 1.05 | 1000 µg/mL | 1000 µg/mL (≈ 3100 µM)
O=C(Cc1ccc(F)cc1)Nc1ccc2oc(Cc3ccccc3)nc2c1 | 0.58 | 500 µg/mL | 500 µg/mL (≈ 1390 µM)
O=[N+]([O-])c1ccc2oc(-c3ccccc3)nc2c1 | 1.07 | 500 µg/mL | 500 µg/mL (≈ 2080 µM)
CNc1ccc(-c2nc3ccccc3o2)cc1 | 1.5 | 500 µg/mL | 1000 µg/mL (≈ 4460 µM)
Nc1ccc2oc(-c3ccc(Br)cc3)nc2c1 | 1.05 | 1000 µg/mL | 1000 µg/mL (≈ 3460 µM)
Cc1ccc(Cc2nc3cc(N)ccc3o2)cc1 | 1.74 | 500 µg/mL | 500 µg/mL (≈ 2100 µM)
Nc1ccc2oc(Cc3ccc(F)cc3)nc2c1 | 1.25 | 500 µg/mL | 500 µg/mL (≈ 2060 µM)
Cc1ccc2nc(-c3ccccc3Cl)oc2c1 | 1.85 | 60 µg/mL | 125 µg/mL (≈ 513 µM)
Cc1ccc2oc(-c3ccccc3[N+](=O)[O-])nc2c1 | 0.96 | 500 µg/mL | 500 µg/mL (≈ 1970 µM)
O=[N+]([O-])c1cc[n+]([O-])c2ccccc12 [4-NITROQUINOLINE-1-OXIDE] | 0.69 | 60 µg/mL | 1000 µg/mL (≈ 5260 µM)
